This is an account of results in patent US6087334A, “Anti-diabetic peptides” (Amylin Pharmaceuticals, Inc., priority 1998, dated 2000).

Where a SMILES comes first, the peptide text is derived from it. Bridges are numbered along the chain shown (N, C = ends).

Assay [1] has as its target T1, C1a receptor (C1a-type calcitonin receptor) (Rattus norvegicus, UniProt P32214).
T1 construct: expressed in transfected cells
T1 sequence (P32214 25-479 isoform P32214-2 limits assumed): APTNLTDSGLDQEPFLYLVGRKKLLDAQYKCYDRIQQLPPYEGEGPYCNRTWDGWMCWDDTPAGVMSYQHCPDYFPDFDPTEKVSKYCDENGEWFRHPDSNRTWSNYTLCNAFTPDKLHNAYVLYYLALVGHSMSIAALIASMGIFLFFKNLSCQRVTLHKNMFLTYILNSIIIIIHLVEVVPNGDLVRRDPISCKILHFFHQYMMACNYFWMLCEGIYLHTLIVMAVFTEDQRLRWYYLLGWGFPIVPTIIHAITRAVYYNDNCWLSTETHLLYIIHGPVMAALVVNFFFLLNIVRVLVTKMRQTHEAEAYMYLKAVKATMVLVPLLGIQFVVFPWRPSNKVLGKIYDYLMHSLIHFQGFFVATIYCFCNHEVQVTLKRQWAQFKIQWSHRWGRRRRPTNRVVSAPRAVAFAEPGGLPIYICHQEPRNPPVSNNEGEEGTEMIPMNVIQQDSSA
Nature of the assay: C1a/293 competitive binding, displacement of [125I]-human calcitonin (Example C). Conditions: HEK293 plasma membranes (C1a/293), [125I]-human calcitonin 20 pM. (In general: In a radioligand displacement assay an active substance lowers the binding of a labelled ligand.)

Assay [2] has as its system gastric emptying in conscious rats. The conditions noted are these: rat, in vivo. From the text:
Peptide compounds of the present invention may be evaluated for amylin agonist activity using the methods of measuring the rate of gastric emptying disclosed in, for example, Young et al., Diabetologia, 38(6):642-648 (1995). In a phenol red method, which is described in Example D below, conscious rats receive by gavage an a caloric gel containing methyl cellulose and a phenol red indicator. Twenty minutes after gavage, animals are anesthetized using halothane, the stomach exposed and clamped at the pyloric and lower esophageal sphincters, removed and opened into an alkaline solution. Stomach content may be derived from the intensity of the phenol red in the alkaline solution, measured by absorbance at a wavelength of 560 nm. In a tritiated glucose method, conscious rats are gavaged with tritiated glucose in water. The rats are gently restrained by the tail, the tip of which is anesthetized using lidocaine. Tritium in the plasma separated from tail blood is collected at various timepoints and detected in a beta counter. Test compounds are normally administered about one minute before gavage.
Phenol Red Gastric Emptying Assay:
Gastric emptying was measured using a modification (Plourde et al., Life Sci. 53:857-862 (1993)) of the original method of Scarpignato et al. (Arch. Int. Pharmacodyn. Ther. 246:286-295 (1980)). Conscious rats received by gavage. 1.5 mL of an a caloric gel containing 1.5% methyl cellulose (M-0262, Sigma Chemical Co., St. Louis, Mo.) and 0.05% phenol red indicator. Twenty minutes after gavage, rats were anesthetized using 5% halothane, the stomach exposed and clamped at the pyloric and lower esophageal sphincters using artery forceps, removed and opened into an alkaline solution which was made up to a fixed volume. Stomach content was derived from the intensity of the phenol red in the alkaline solution, measured by absorbance at a wavelength of 560 nm. […] In other experiments, particulate gastric contents were centrifuged to clear the solution for absorbance measurements. Where the diluted gastric contents remained turbid, the spectroscopic absorbance due to phenol red was derived as the difference between that present in alkaline versus acidified dilutent.
In separate experiments on 7 rats, the stomach and small intestine were both excised and opened into an alkaline solution. […] Percent gastric emptying contents remaining=(absorbance at 20 min)/(absorbance at 0 min). For those compounds for which ED50 data is presented, dose response curves for gastric emptying were fitted to a 4-parameter logistic model using a least-squares iterative routine (ALLFIT, v2.7, NIH, Bethesda, Md.) to derive ED50 s. Because ED50 is log-normally distributed, it is expressed ± standard error of the logarithm. Pairwise comparisons were performed using one-way analysis of variance and the Student-Newman-Keuls multiple comparisons test (Instat v2.0, GraphPad Software, San Diego, Calif.) using P<0.05 as the level of significance.
As a reference point for dose response studies, rat amylin (Bachem, Torrance, Calif.) dissolved in 0.15M saline, was administered as a 0.1 mL subcutaneous bolus in doses of 0, 0.01, 0.1, 1, 10 or 100 μg 5 minutes before gavage in Harlan Sprague Dawley (non-diabetic) rats fasted 20 hours and diabetic BB rats fasted 6 hours.

In the case of `CC(C)C[C@H](NC(=O)[C@H](CCCNC(=N)N)NC(=O)[C@H](C)NC(=O)[C@@H](NC(=O)[C@H](C)NC(=O)[C@H](C)NC(=O)[C@@H](NC(=O)[C@H](CO)NC(=O)[C@@H](N)CC(C)C)[C@@H](C)O)[C@@H](C)O)C(=O)N[C@@H](C)C(=O)N[C@@H](C)C(=O)N[C@@H](Cc1ccccc1)C(=O)N[C@@H](CC(C)C)C(=O)N[C@@H](C)C(=O)N[C@@H](CCCNC(=N)N)C(=O)N[C@@H](CO)C(N)=O` [Example 6] (H-LSTAATARLAAFLARS-NH2), in assay [1], the IC50 (commonly the midpoint of a concentration-inhibition curve) was determined as 1.4 nM. Also, the “Example D ED50” value in assay [2] stood at 1.34 µg.
On the same counts, the results for `CC(C)C[C@H](NC(=O)[C@H](CCCNC(=N)N)NC(=O)[C@H](C)NC(=O)[C@@H](NC(=O)[C@H](C)NC(=O)[C@@H]1CSSC[C@H](N)C(=O)N[C@@H](CC(N)=O)C(=O)N[C@@H]([C@@H](C)O)C(=O)N[C@@H](C)C(=O)N[C@@H]([C@@H](C)O)C(=O)N1)[C@@H](C)O)C(=O)N[C@@H](C)C(=O)N[C@@H](C)C(=O)N[C@@H](Cc1ccccc1)C(=O)N[C@@H](CC(C)C)C(=O)N[C@@H](C)C(=O)N[C@@H](CCCNC(=N)N)C(=O)N[C@@H](CO)C(N)=O` [Example 3] (H-CNTATCATARLAAFLARS-NH2; disulfide 1-6) are 0.19 nM and 0.45 µg.
On the same counts, the results for `CC(C)C[C@H](NC(=O)[C@H](CCCNC(=N)N)NC(=O)[C@H](C)NC(=O)[C@@H](NC(=O)[C@H](C)NC(=O)[C@@H]1CSSC[C@H](NC(=O)[C@@H](N)CCCCN)C(=O)N[C@@H](CC(N)=O)C(=O)N[C@@H]([C@@H](C)O)C(=O)N[C@@H](C)C(=O)N[C@@H]([C@@H](C)O)C(=O)N1)[C@@H](C)O)C(=O)N[C@@H](C)C(=O)N[C@@H](CC(N)=O)C(=O)N[C@@H](Cc1ccccc1)C(=O)N[C@@H](CC(C)C)C(=O)N[C@H](C(=O)N[C@@H](CCCNC(=N)N)C(=O)N[C@@H](CO)C(=O)N[C@@H](CO)C(=O)NCC(=O)N[C@@H](Cc1ccc(O)cc1)C(N)=O)C(C)C` [Example 5] (H-KCNTATCATARLANFLVRSSGY-NH2; disulfide 2-7) are 1.4 nM and 9.3 µg.
On the same counts, the results for `CC(C)C[C@H](NC(=O)[C@H](CCCNC(=N)N)NC(=O)[C@H](C)NC(=O)[C@@H](NC(=O)[C@H](C)NC(=O)[C@@H]1CSSC[C@H](NC(=O)[C@@H](N)CCCCN)C(=O)N[C@@H](CC(N)=O)C(=O)N[C@@H]([C@@H](C)O)C(=O)N[C@@H](C)C(=O)N[C@@H]([C@@H](C)O)C(=O)N1)[C@@H](C)O)C(=O)N[C@@H](C)C(=O)N[C@@H](C)C(=O)N[C@@H](Cc1ccccc1)C(=O)N[C@@H](CC(C)C)C(=O)N[C@@H](C)C(=O)N[C@@H](CCCNC(=N)N)C(=O)N[C@@H](CO)C(=O)N[C@@H](CO)C(=O)NCC(=O)N[C@@H](Cc1ccc(O)cc1)C(N)=O` [Example 1] (H-KCNTATCATARLAAFLARSSGY-NH2; disulfide 2-7) are 0.093 nM and 0.26 µg.
